According to patent US20100010098A1, “POLYMORPHS OF RASAGILINE HYDROCHLORIDE” (priority 2008, published 2010):
Where a name gives a salt, the structure may show the parent alone. Read-outs that look alike come from different tables or passages of the source.

Tests used:
[1] = after storage for 4 weeks at 55° C./90% relative humidity
[2] = solid state; suspension with a liquid; compared with Form I
Experimental: 9 mg of rasagiline HCl Form I was suspended in 0.15 ml 2-PrOH and stirred for 11 days at 70° C.
b) 50 mg of rasagiline HCl Form I was suspended in 0.23 ml 2-PrOH and stirred for 7 days at 5° C.
20 mg of Form II was added to a suspension of 1.49 g Form III in 6 ml 2-PrOH. After 4 days solid material was isolated by filtration, washed with diethyl ether and was dried overnight at 40° C. in vacuo.

| SMILES | Chemical Purity (HPLC) [1] | Color Change [1] | Water uptake [1] | relative stability of the polymorphic form [2] | Chemical Purity (HPLC) ([1]; hydrochloride) | Color Change ([1]; hydrochloride) | Water uptake ([1]; hydrochloride) |
| --- | --- | --- | --- | --- | --- | --- | --- |
| C#CCN[C@@H]1CCc2ccccc21 [rasagiline mesylate, reference compound] | 97.1% | Yes, brown color | Yes |  |  |  |  |
| C#CCN[C@@H]1CCc2ccccc21 [Form II rasagiline hydrochloride, rasagiline hydrochloride] |  |  |  | more stable in the solid state than the crystalline Form I | 100% | No | No |
